≈ marks a conversion by molar mass, not a printed value.
Experiments:
Pseudomonas aeruginosa [1] = experiment: Antimicrobial activity against Pseudomonas aeruginosa PAO1 assessed as reduction in bacterial growth measured for 24 hrs by broth micro-dilution method; format: functional
Pseudomonas aeruginosa [2] = experiment: Antibiofilm activity against Pseudomonas aeruginosa assessed as reduction in biofilm formation incubated for 24 hrs relative to control; format: functional; set-up: scale not given: the % may be the effect or the level left
Pseudomonas aeruginosa [3] = experiment: Antivirulence activity against Pseudomonas aeruginosa assessed as reduction in elastase level at 100 uM incubated for 24 hrs by elastin-Congo red staining based analysis relative to control; format: functional; set-up: scale not given: the % may be the effect or the level left
Pseudomonas aeruginosa [4] = experiment: Downregulation of rhlR mRNA expression in Pseudomonas aeruginosa PAO1 incubated for 4 hrs by RT-qPCR analysis; format: functional, organism-based; details: PAO1, 4 h
Pseudomonas aeruginosa [5] = experiment: Anti-virulence activity against Pseudomonas aeruginosa assessed as reduction in pyocyanin production level at 100 uM incubated for 24 hrs by absorbance based assay relative to control; format: functional; set-up: scale not given: the % may be the effect or the level left
Pseudomonas aeruginosa [6] = experiment: Downregulation of lasR mRNA expression in Pseudomonas aeruginosa PAO1 incubated for 4 hrs by RT-qPCR analysis; format: functional, organism-based; details: PAO1, 4 h
Pseudomonas aeruginosa [7] = experiment: Anti-virulence activity against Pseudomonas aeruginosa assessed as reduction in protease production level at 100 uM incubated for 24 hrs by absorbance based assay relative to control; format: functional; set-up: scale not given: the % may be the effect or the level left
Pseudomonas aeruginosa [8] = experiment: Downregulation of rhlI mRNA expression in Pseudomonas aeruginosa PAO1 incubated for 4 hrs by RT-qPCR analysis; format: functional, organism-based; details: PAO1, 4 h
Pseudomonas aeruginosa [9] = experiment: Downregulation of lasB mRNA expression in Pseudomonas aeruginosa PAO1 incubated for 4 hrs by RT-qPCR analysis; format: functional, organism-based; details: PAO1, 4 h
Pseudomonas aeruginosa [10] = experiment: Antimicrobial activity against Pseudomonas aeruginosa assessed as reduction in microbial growth; format: functional, organism-based
Pseudomonas aeruginosa [11] = experiment: Downregulation of pqsR mRNA expression in Pseudomonas aeruginosa PAO1 incubated for 4 hrs by RT-qPCR analysis; format: functional, organism-based; details: PAO1, 4 h
Pseudomonas aeruginosa [12] = experiment: Downregulation of lasA mRNA expression in Pseudomonas aeruginosa PAO1 incubated for 4 hrs by RT-qPCR analysis; format: functional, organism-based; details: PAO1, 4 h
Pseudomonas aeruginosa [13] = experiment: Antivirulence activity against Pseudomonas aeruginosa PAO1 assessed as inhibition of pyocyanin production; format: functional, organism-based
[14] = Inhibition of quorum sensing system in Pseudomonas aeruginosa PAO1-pqsA assessed as reduction in fluorescence intensity measured for 12 hrs by GFP reporter strain assay
Pseudomonas aeruginosa [15] = experiment: Downregulation of lasR mRNA expression level in Pseudomonas aeruginosa PAO1 at 200 uM by RT-PCR analysis relative to control; format: functional
Pseudomonas aeruginosa [16] = experiment: Downregulation of rhlI mRNA expression level in Pseudomonas aeruginosa PAO1 at 200 uM by RT-PCR analysis relative to control; format: functional
Pseudomonas aeruginosa [17] = experiment: Antibacterial activity against Pseudomonas aeruginosa PAO1 assessed as bacterial growth inhibition incubated for 24 hrs by micro-broth dilution method; format: functional
Pseudomonas aeruginosa [18] = experiment: Downregulation of lasI mRNA expression level in Pseudomonas aeruginosa PAO1 at 200 uM by RT-PCR analysis relative to control; format: functional
Pseudomonas aeruginosa [19] = experiment: Downregulation of rhlR mRNA expression level in Pseudomonas aeruginosa PAO1 at 200 uM by RT-PCR analysis relative to control; format: functional
Pseudomonas aeruginosa [20] = experiment: Antibiofilm activity against Pseudomonas aeruginosa PAO1; format: functional, organism-based

**Q.** Which MIC (Pseudomonas aeruginosa [1]) does the source give for Fc1ccc(-c2nn(-c3ccc(Cl)cc3)cc2-c2nc(-c3ccccc3)c(-c3ccccc3)[nH]2)c(Br)c1 here?
**A.** 63 µg/mL (≈ 111 µM)

**Q.** For CCOP(=O)(NCCCCOc1cc(O)c2c(=O)cc(-c3ccccc3)oc2c1)OCC, which Activity (Pseudomonas aeruginosa [2]) is on record?
**A.** 78%

**Q.** What about the Activity (Pseudomonas aeruginosa [3]) of the same compound?
**A.** 42.2%

**Q.** And the IC50 (Pseudomonas aeruginosa [4])?
**A.** 100 µM

**Q.** What about the Activity (Pseudomonas aeruginosa [5]) of the same compound?
**A.** 63.8%

**Q.** What about the IC50 (Pseudomonas aeruginosa [6]) of the same compound?
**A.** 100 µM

**Q.** And the Activity (Pseudomonas aeruginosa [7])?
**A.** 18.8%

**Q.** And the IC50 (Pseudomonas aeruginosa [8])?
**A.** 100 µM

**Q.** And the IC50 (Pseudomonas aeruginosa [9])?
**A.** 100 µM

**Q.** What about the IC50 (Pseudomonas aeruginosa [10]) of the same compound?
**A.** 100 µM

**Q.** And the IC50 (Pseudomonas aeruginosa [11])?
**A.** 100 µM

**Q.** And the IC50 (Pseudomonas aeruginosa [12])?
**A.** 100 µM

**Q.** With CC(C)=CCC/C(C)=C/CC/C(C)=C/CO [FARNESOL] as the compound, how does the IC50 (Pseudomonas aeruginosa [13]) read?
**A.** 1.11 µg/mL (≈ 4.99 µM)

**Q.** And the IC50 [14]?
**A.** 0.14 µg/mL (≈ 0.63 µM)

**Q.** Which Activity (Pseudomonas aeruginosa [15]) does the source give for O=c1c(O)c(-c2ccc(O)c(O)c2)oc2cc(O)cc(O)c12 [QUERCETIN] here?
**A.** 85%

**Q.** What about the Activity (Pseudomonas aeruginosa [16]) of the same compound?
**A.** 85%

**Q.** What about the MIC (Pseudomonas aeruginosa [17]) of the same compound?
**A.** 1 µM (≈ 0.302 µg/mL)

**Q.** And the Activity (Pseudomonas aeruginosa [18])?
**A.** 85%

**Q.** What about the Activity (Pseudomonas aeruginosa [19]) of the same compound?
**A.** 85%

**Q.** And the IC50 (Pseudomonas aeruginosa [20])?
**A.** 100 µM
